The text below walks through data of the METLIN SMRT retention time set (Domingo-Almenara et al. 2019).

The nature of the data set: gradient 5% acetonitrile 3 min, to 50% in 2 min, to 85% in 15 min, held 3 min, 100 µL/min. As to conditions: column: Zorbax Extend-C18 2.1 x 50 mm; eluents: water / acetonitrile, 0.1% formic acid. An outline of the steps:
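Each retention time is based on an adduct peak selected computationally and verified by manual inspection. Measurements used HPLC–quadrupole time-of-flight mass spectrometry in positive and negative ionization mode on mixtures of ~100 pure standards. Chromatography ran on a Zorbax Extend-C18 column (2.1 × 50 mm, 1.8 μm) at 100 μL/min with water and acetonitrile, each containing 0.1% formic acid, and dead and dwell volumes of 40 μL and 900 μL.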
`CCc1ccc(CNC(=O)c2cc3n(n2)CC(C)(C(=O)NC2CCCC2)N(C)C3=O)cc1` (stereo unspecified) registered an RP-LC retention time of 812 s.

As for `Cc1ccc(OCC(=O)Nc2cc3[nH]c(=O)[nH]c3cc2C)cc1`, the RP-LC retention time came out at 698 s.

On to `O=C(NC1CCCCCC1)C1CCCN(c2ncnc3c2oc2ccccc23)C1` (stereo unspecified), for which the RP-LC retention time was 815 s.

`COc1ccc(-c2noc(-c3nc(-c4cccnc4)no3)n2)cc1` yielded an RP-LC retention time of 966 s.

`COc1ccc(OC)c(NC(=O)c2c(C)oc3nc(C)nc(N4CCOCC4)c23)c1` gave an RP-LC retention time of 818 s.

In the case of `Cn1cccc1C(=O)C(=O)N1CCN(C(c2ccccc2)c2ccccc2)CC1`, the RP-LC retention time was found to be 824 s.

`Cc1c(S(=O)(=O)NCC2CC2)c(C)n(C)c1-c1nnc(C2CCC2)o1` registered an RP-LC retention time of 899 s.

In the case of `CCCCN(C)C(=O)c1cc2sc(C)c(CN3CCCC3)c2[nH]1`, the RP-LC retention time came to 671 s.

For the molecule `O=C(NCc1csc(C2CCN(C(=O)c3ccccc3Cl)CC2)n1)C1CCC1`, the RP-LC retention time stood at 725 s.

`NC(=O)C1CCN(C2CC(=O)N(c3ccccc3Sc3ccccc3)C2=O)CC1` (stereo unspecified) gave an RP-LC retention time of 650 s.

Molecule `Cc1ccc(CC(=O)Nc2ccc(-c3nc(Cn4nc(C)cc4C)c(C)o3)cc2)cc1` showed an RP-LC retention time of 559 s.

`Fc1ccc(CN2CCC(N3CC4(CCCCC4)C3c3ccncc3)CC2)cc1F` (stereo unspecified) returned an RP-LC retention time of 604 s.

For the molecule `CCn1c(=O)c(N2CCC(NC(=O)Nc3cc(C)cc(C)c3)CC2)nc2cccnc21`, the RP-LC retention time came out at 1010 s.

Molecule `Cc1ccc2c(c1)N(S(C)(=O)=O)CCC(C(=O)NCc1ccccc1)O2` (stereo unspecified) showed an RP-LC retention time of 875 s.

As for `CCCN(CCC)C(=O)C(CCC(=O)O)NC(=O)c1ccccc1` (stereo unspecified), the RP-LC retention time was determined as 822 s.

In the case of `CCOCCn1c(=O)c2c(nc3n2CCCCN3c2ccc(OCC)cc2)n(C)c1=O`, the RP-LC retention time was 906 s.

`Cc1cccc(C)c1NC(=O)N1CCC(c2cc(N)on2)CC1` came in with an RP-LC retention time of 660 s.

Take `Cc1nc(C)c(CCNC(=O)c2ccc(C)c([N+](=O)[O-])c2)s1`: the RP-LC retention time came out at 614 s.

With `O=C(Nc1ccccc1)N1CCCC1c1nncn1C1CCCC1` (stereo unspecified), the RP-LC retention time came to 622 s.

In turn, `C=CCNC(=O)N1CCCN(C2=NS(=O)(=O)C(c3ccccc3)=C2C)CC1` gave an RP-LC retention time of 713 s.

The molecule `Cc1cc(=O)n(CC(=O)Nc2ccccc2C)c(N)n1` gave an RP-LC retention time of 590 s.

For `O=C(O)C1CCN(c2nc3ccc(-c4ccccc4F)nc3s2)CC1`, the RP-LC retention time is 869 s.

Consider `CCOc1cc(=O)n2c(c1C(=O)Nc1cc(OC)ccc1OC)CCCC2`, for which the RP-LC retention time is 727 s.

Molecule `Cc1c(C(=O)N2CCOCC2)cnn1-c1cc(-c2nc(C(C)(C)C)no2)ccn1` had an RP-LC retention time of 931 s.

In turn, `Cc1cc(-c2c(C)sc(C)c2S(=O)(=O)NCc2ccccc2Cl)n[nH]1` had an RP-LC retention time of 1060 s.

`O=C(NCC1CCOCC1)Nc1cccc(Br)c1` showed an RP-LC retention time of 749 s.

`COc1ccc(C2Cn3cnc(C(=O)N4CCC(C(=O)NC(C)c5ccccc5)CC4)c3CO2)cc1` (stereo unspecified) came in with an RP-LC retention time of 751 s.

For `Cc1nc(-c2cc(S(=O)(=O)Nc3ccc(Br)c(C)c3)c(C)s2)cs1`, the RP-LC retention time came to 1120 s.

The molecule `O=C(O)c1nnn(-c2ccc(F)cc2)c1-c1ccncc1` yielded an RP-LC retention time of 612 s.

In the case of `CCC(C)NC(=O)Cc1cccn1-c1ccc(F)cc1` (stereo unspecified), the RP-LC retention time is 856 s.

For `CCOc1ccccc1-c1nc(-c2cn(Cc3ccc(F)cc3)nn2)no1`, the RP-LC retention time was 1020 s.

For the molecule `O=C(Nc1ccc(Cl)cc1)C1CCCN1S(=O)(=O)c1cccc2nsnc12` (stereo unspecified), the RP-LC retention time was 924 s.

Molecule `Cc1nn2c(CNC(=O)c3cc(F)cc(F)c3)c(C)nc2s1` returned an RP-LC retention time of 651 s.

`COc1ccccc1-c1noc(Cn2cnc3c(cnn3-c3ccc(C)cc3)c2=O)n1` displayed an RP-LC retention time of 1100 s.

For `CCCCn1c(CN2CCOCC2)nc2cc(NC(=O)C(C)C)ccc21`, the RP-LC retention time came out at 648 s.

The molecule `Cc1ccccc1-c1nnc(CSc2ccc(N)cc2)o1` showed an RP-LC retention time of 818 s.

`COC(=O)c1cc2c(=O)n(-c3ccccc3Cl)ccc2nc1C` registered an RP-LC retention time of 830 s.

The molecule `O=C1CN(S(=O)(=O)c2cc(F)ccc2F)C2(CCCCC2)CN1CC1CC1` returned an RP-LC retention time of 959 s.

With `c1cc(-c2noc(-c3cccnc3)n2)cc(-c2ccn[nH]2)c1`, the RP-LC retention time came out at 777 s.

Turning to `COCCNc1ccc2nnc(C)n2n1`, the RP-LC retention time was found to be 590 s.

With `C[C@@H](NC(=O)c1cccc(F)c1)C(=O)NCc1cscn1`, the RP-LC retention time is 636 s.

In turn, `CCC(C)NC(=O)N1CC(n2cc(C(=O)N3CCOCC3)nn2)C1` (stereo unspecified) returned an RP-LC retention time of 608 s.

Take `CCn1cc(C2=CCN(S(=O)(=O)c3ccc(C)c(Cl)c3)CC2)c2cccnc21`: the RP-LC retention time is 1180 s.

Regarding `COc1cc(NC(=O)c2c(O)c3cccnc3n(-c3ccccc3)c2=O)cc(OC)c1`, the RP-LC retention time amounted to 1250 s.

The molecule `Cc1ccc(-c2cc3c(=O)n(Cc4noc(CN5CCCC5)n4)ccn3n2)c(C)c1` yielded an RP-LC retention time of 686 s.

For `COc1ccc(-c2cc3c(=O)n(Cc4cc(C)ccc4C)ccn3n2)cc1OC`, the RP-LC retention time amounted to 1010 s.

`CCN1CCCC1CNC(=O)CCc1cc2cc(C)ccc2[nH]c1=O` (stereo unspecified) had an RP-LC retention time of 588 s.

`CCN1c2ccccc2C(=O)NC12CCN(C(=O)Nc1ccccc1OC)CC2` gave an RP-LC retention time of 781 s.

The molecule `CC1CCN(c2cnn(CC(=O)Nc3cccc(C(C)C)c3)c(=O)c2Cl)CC1` came in with an RP-LC retention time of 1100 s.

Take `Cc1ccc(Cl)cc1N1C(=O)CN(S(C)(=O)=O)CC1(C)C(=O)NC1CCCCCCC1` (stereo unspecified): the RP-LC retention time turned out to be 980 s.

`Cc1ccc(CNC(=O)N2CCc3c(c(-c4nc(C5CC5)no4)nn3C)C2)cc1` displayed an RP-LC retention time of 828 s.

With `COCC1(O)CCOC2(CCN(Cc3ccc(C)c(C)c3)CC2)C1` (stereo unspecified), the RP-LC retention time worked out at 627 s.

`Cc1ccc2c(c1)N(S(C)(=O)=O)CCC(C(=O)NCc1ccccc1Cl)O2` (stereo unspecified) registered an RP-LC retention time of 945 s.

As to `CC(NC(=O)C1CCN(c2cnc3nccnc3c2)CC1)c1ccc(F)cc1` (stereo unspecified), the RP-LC retention time came to 702 s.

Molecule `CC12C=CC(=O)C=C1CCC1C2=CCC2(C)C1CC[C@@H]2C(=O)CN1CCN(c2cc(N3CCCC3)nc(N3CCCC3)n2)CC1` (stereo partly specified) gave an RP-LC retention time of 732 s.

With `Cc1ccc(S(=O)(=O)Cc2noc(-c3ccc(Br)cc3)n2)cc1`, the RP-LC retention time was 1030 s.

The molecule `CCc1ccc(NC(=O)Cn2nc(N3CCOCC3)c3ccccc3c2=O)cc1` came in with an RP-LC retention time of 874 s.

For the molecule `COCCNC(=O)C1Cn2cccc2C(=O)N1C` (stereo unspecified), the RP-LC retention time amounted to 570 s.

For `O=C(c1nnc(-c2ccc(S(=O)(=O)N3CCCC3)cc2)o1)N1CCCCCC1`, the RP-LC retention time was 902 s.

Molecule `O=c1c2c(CO)c(-c3ccccc3)nn2ccn1CCc1ccccc1` registered an RP-LC retention time of 926 s.

For the molecule `CCc1c(C2CCN(C(=O)C3COc4ccccc4O3)CC2)noc1N` (stereo unspecified), the RP-LC retention time came to 684 s.

As to `Cc1ccc(-c2nnc(Cc3nc(-c4ccc(F)cc4)no3)o2)cc1C`, the RP-LC retention time came to 1120 s.

As for `Cn1c(CC2CCN(C(=O)c3ccccc3Cl)C2)nc2cccnc21` (stereo unspecified), the RP-LC retention time amounted to 572 s.

`Cc1cc(Cl)ccc1S(=O)(=O)N1CCCC1c1nc(-c2cccc(F)c2)no1` (stereo unspecified) yielded an RP-LC retention time of 1220 s.

`CC(C)Oc1cccc(NC(=O)C2CCN(S(C)(=O)=O)c3ccccc3O2)c1` (stereo unspecified) had an RP-LC retention time of 830 s.

In turn, `Cc1cccc(CN2CCCn3nc(C(=O)NCc4ccco4)cc3C2=O)c1` came in with an RP-LC retention time of 810 s.

Take `NS(=O)(=O)c1ccc(CNC(=O)CCCn2cnc(-c3ccc(F)cc3)cc2=O)cc1`: the RP-LC retention time worked out at 652 s.

Take `CCN1CCN(S(=O)(=O)c2ccc(Cl)c(C(F)(F)F)c2)CC1`: the RP-LC retention time is 569 s.

`O=C(CCC[C@@H]1[C@H]2CCCN3CCC[C@@H](CN1C(=O)c1ccccc1)[C@@H]23)NC1CCS(=O)(=O)C1` (stereo partly specified) came in with an RP-LC retention time of 574 s.

Turning to `COc1ccc(OC)c(NC(=O)Cn2c(=O)nc(N3CCC(C)CC3)c3ccccc32)c1`, the RP-LC retention time was 859 s.

The molecule `Cc1cc(C)nc(Nc2nc(C(=O)NCCOc3ccc(F)cc3)cs2)n1` had an RP-LC retention time of 842 s.

As for `CC(C)(C)CC(=O)N1CCN(c2nc(CN3CCOCC3)cs2)CC1`, the RP-LC retention time was found to be 611 s.

As for `Cc1cc(N2CCN(C(=O)c3ccc4c(c3)OCO4)CC2)nc2nnc(C)n12`, the RP-LC retention time worked out at 595 s.

With `COc1ccc(C)cc1NC(=O)N1C[C@@H]2C[C@H](NC(=O)c3cccs3)[C@H]1C2`, the RP-LC retention time was determined as 827 s.

Molecule `CCCNc1cc(N2CCCC(CCC(=O)NCc3cccc(F)c3)C2)ncn1` (stereo unspecified) returned an RP-LC retention time of 696 s.

Molecule `CC(C)(C)c1noc(-c2ccnc(-n3cnc(C(=O)NCC4CC4)c3)c2)n1` returned an RP-LC retention time of 1110 s.

In turn, `Cc1cc(Br)ccc1NC(=O)C1CCCN(c2nccnc2Oc2ccccc2)C1` (stereo unspecified) had an RP-LC retention time of 1120 s.

`COC(=O)c1ccc(Cl)cc1NC(=O)N(C)CCc1c(C)nn(C)c1C`: the RP-LC retention time was 873 s.

Molecule `Cn1c(=O)oc2cc(-c3noc(-c4ccc(CS(=O)(=O)c5ccccc5)cc4)n3)ccc21` yielded an RP-LC retention time of 959 s.

As to `CCOc1ccccc1NC(=O)N(C)CCc1noc(C2CCCCC2)n1`, the RP-LC retention time was found to be 1070 s.

`O=C(O)c1cc(-c2ccc(Br)s2)nc2ccccc12`: the RP-LC retention time was found to be 1110 s.
